Source: PubChem BioAssay (NCI)
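Test compounds were applied to cells in 96-well plates for 48 hours at 5 doses. TGI marks complete inhibition of growth.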

Tests used:
Test in all cases: NCI tumour cell line growth inhibition, 48 h
ACHN renal = tested on: ACHN renal
A549 NSCLC = tested on: A549 NSCLC
HS 578T breast = tested on: HS 578T breast
CAKI-1 renal = tested on: CAKI-1 renal
NCI-H522 lung = tested on: NCI-H522 lung
RXF 393 renal = tested on: RXF 393 renal
SN12C renal = tested on: SN12C renal
NCI/ADR-RES ovarian = tested on: NCI/ADR-RES ovarian
EKVX NSCLC = tested on: EKVX NSCLC
SR leukemia = tested on: SR leukemia
A498 renal = tested on: A498 renal
NCI-H460 lung = tested on: NCI-H460 lung
SNB-75 CNS = tested on: SNB-75 CNS
OVCAR-3 ovarian = tested on: OVCAR-3 ovarian
KM12 colon = tested on: KM12 colon
TK-10 renal = tested on: TK-10 renal
LOX IMVI melanoma = tested on: LOX IMVI melanoma
HL-60(TB) leukemia = tested on: HL-60(TB) leukemia
HCT-116 colon = tested on: HCT-116 colon
SK-MEL-28 melanoma = tested on: SK-MEL-28 melanoma
SK-MEL-2 melanoma = tested on: SK-MEL-2 melanoma
PC-3 prostate = tested on: PC-3 prostate
MDA-MB-435 = tested on: MDA-MB-435
SF-539 CNS = tested on: SF-539 CNS
MDA-N = tested on: MDA-N
MDA-MB-231 breast = tested on: MDA-MB-231 breast
SK-MEL-5 melanoma = tested on: SK-MEL-5 melanoma
HT29 colon = tested on: HT29 colon
OVCAR-8 ovarian = tested on: OVCAR-8 ovarian
DU-145 prostate = tested on: DU-145 prostate
BT-549 breast = tested on: BT-549 breast
HOP-62 NSCLC = tested on: HOP-62 NSCLC
MALME-3M melanoma = tested on: MALME-3M melanoma
RPMI-8226 leukemia = tested on: RPMI-8226 leukemia
UACC-62 melanoma = tested on: UACC-62 melanoma
HCT-15 colon = tested on: HCT-15 colon
UO-31 renal = tested on: UO-31 renal
OVCAR-5 ovarian = tested on: OVCAR-5 ovarian
MOLT-4 leukemia = tested on: MOLT-4 leukemia
SK-OV-3 ovarian = tested on: SK-OV-3 ovarian
SF-295 CNS = tested on: SF-295 CNS
NCI-H226 lung = tested on: NCI-H226 lung
UACC-257 melanoma = tested on: UACC-257 melanoma
HOP-92 NSCLC = tested on: HOP-92 NSCLC
CCRF-CEM leukemia = tested on: CCRF-CEM leukemia
U251 CNS = tested on: U251 CNS
SF-268 CNS = tested on: SF-268 CNS
OVCAR-4 ovarian = tested on: OVCAR-4 ovarian
MCF7 breast = tested on: MCF7 breast
COLO 205 colon = tested on: COLO 205 colon
IGROV1 ovarian = tested on: IGROV1 ovarian
SNB-19 CNS = tested on: SNB-19 CNS
NCI-H23 lung = tested on: NCI-H23 lung
SW-620 colon = tested on: SW-620 colon
T-47D breast = tested on: T-47D breast
K-562 leukemia = tested on: K-562 leukemia
786-0 renal = tested on: 786-0 renal
HCC-2998 colon = tested on: HCC-2998 colon
M14 melanoma = tested on: M14 melanoma

Compound CN(C)c1ccc(/C=C2\C[C@H]3[C@@H]4CCc5cc(OCCN6CCCC6)ccc5[C@H]4CC[C@]3(C)[C@H]2O)cc1 has a TGI (ACHN renal) of 42.9 µM, a TGI (A549 NSCLC) of 20.3 µM and a TGI (HS 578T breast) greater than 61.9 µM. For the same compound, the TGI (CAKI-1 renal) was 30 µM, the TGI (NCI-H522 lung) was 7.69 µM and the TGI (RXF 393 renal) was 33.9 µM. For the same compound, the TGI (SN12C renal) was 47.4 µM, the TGI (NCI/ADR-RES ovarian) was 53.6 µM and the TGI (EKVX NSCLC) was 41.8 µM. The TGI (SR leukemia) was 10.2 µM, the TGI (A498 renal) was 34.9 µM and the TGI (NCI-H460 lung) was 30.2 µM. For the same compound, the TGI (SNB-75 CNS) was 28 µM, the TGI (OVCAR-3 ovarian) was 30.9 µM and the TGI (KM12 colon) was greater than 60.2 µM. For the same compound, the TGI (TK-10 renal) was 11.6 µM, the TGI (LOX IMVI melanoma) was greater than 100 µM and the TGI (HL-60(TB) leukemia) was 43.3 µM. For the same compound, the TGI (HCT-116 colon) was 8.78 µM, the TGI (SK-MEL-28 melanoma) was 11.9 µM and the TGI (SK-MEL-2 melanoma) was 34.8 µM. The TGI (PC-3 prostate) was 48.9 µM, the TGI (MDA-MB-435) was 39 µM and the TGI (SF-539 CNS) was 22 µM. For the same compound, the TGI (MDA-N) was 46.3 µM, the TGI (MDA-MB-231 breast) was 16.4 µM and the TGI (SK-MEL-5 melanoma) was 22.9 µM. The TGI (HT29 colon) was greater than 25.7 µM, the TGI (OVCAR-8 ovarian) was 18.9 µM and the TGI (DU-145 prostate) was 26.2 µM. It also gave a TGI (BT-549 breast) of 31.1 µM, a TGI (HOP-62 NSCLC) of 35.5 µM and a TGI (MALME-3M melanoma) greater than 30.2 µM. The TGI (RPMI-8226 leukemia) was greater than 63.8 µM, the TGI (UACC-62 melanoma) was 39.5 µM and the TGI (HCT-15 colon) was greater than 100 µM. For the same compound, the TGI (UO-31 renal) was 16.8 µM, the TGI (OVCAR-5 ovarian) was 31.1 µM and the TGI (MOLT-4 leukemia) was 46 µM. It also gave a TGI (SK-OV-3 ovarian) of 31.7 µM, a TGI (SF-295 CNS) of 30.4 µM and a TGI (NCI-H226 lung) of 37.4 µM. It also gave a TGI (UACC-257 melanoma) of 19.5 µM, a TGI (HOP-92 NSCLC) of 24.7 µM and a TGI (CCRF-CEM leukemia) of 5.99 µM. It also gave a TGI (U251 CNS) of 17.6 µM, a TGI (SF-268 CNS) of 61.7 µM and a TGI (OVCAR-4 ovarian) greater than 58.8 µM. For the same compound, the TGI (MCF7 breast) was 30.1 µM, the TGI (COLO 205 colon) was 27.9 µM and the TGI (IGROV1 ovarian) was 39.7 µM. For the same compound, the TGI (SNB-19 CNS) was 46.1 µM, the TGI (NCI-H23 lung) was 31.4 µM and the TGI (SW-620 colon) was 18.6 µM. The TGI (T-47D breast) was 47.5 µM, the TGI (K-562 leukemia) was greater than 37.5 µM and the TGI (786-0 renal) was 5.05 µM. The TGI (HCC-2998 colon) was 14.5 µM.

For N#CC12CC3=C(N=C1NC1=C(CCc4ccccc41)C2)c1ccccc1CC3 (configuration not stated), the TGI (ACHN renal) was greater than 100 µM, the TGI (A549 NSCLC) was greater than 100 µM and the TGI (HS 578T breast) was greater than 34.5 µM. It also gave a TGI (CAKI-1 renal) of 77.2 µM, a TGI (NCI-H522 lung) of 6.47 µM and a TGI (RXF 393 renal) greater than 100 µM. It also gave a TGI (SN12C renal) greater than 81.9 µM, a TGI (NCI/ADR-RES ovarian) of 29.5 µM and a TGI (EKVX NSCLC) greater than 100 µM. For the same compound, the TGI (SR leukemia) was 0.694 µM, the TGI (A498 renal) was 7.97 µM and the TGI (NCI-H460 lung) was greater than 100 µM. For the same compound, the TGI (M14 melanoma) was 17.6 µM, the TGI (SNB-75 CNS) was 11 µM and the TGI (OVCAR-3 ovarian) was 8.13 µM. It also gave a TGI (KM12 colon) of 20.4 µM, a TGI (TK-10 renal) of 65.8 µM and a TGI (LOX IMVI melanoma) of 13.9 µM. For the same compound, the TGI (HL-60(TB) leukemia) was 1.15 µM, the TGI (HCT-116 colon) was 21.7 µM and the TGI (SK-MEL-28 melanoma) was 44.3 µM. The TGI (SK-MEL-2 melanoma) was 23.6 µM, the TGI (PC-3 prostate) was greater than 54.5 µM and the TGI (MDA-MB-435) was 0.923 µM. It also gave a TGI (SF-539 CNS) of 7.22 µM, a TGI (MDA-N) of 0.809 µM and a TGI (MDA-MB-231 breast) greater than 57.5 µM. The TGI (SK-MEL-5 melanoma) was greater than 35.5 µM, the TGI (HT29 colon) was 6.52 µM and the TGI (OVCAR-8 ovarian) was 15.7 µM. The TGI (DU-145 prostate) was greater than 85.1 µM, the TGI (BT-549 breast) was 65.3 µM and the TGI (HOP-62 NSCLC) was 53 µM. It also gave a TGI (MALME-3M melanoma) of 37.1 µM, a TGI (RPMI-8226 leukemia) of 4.15 µM and a TGI (UACC-62 melanoma) of 42.6 µM. It also gave a TGI (HCT-15 colon) of 51 µM, a TGI (UO-31 renal) of 35.1 µM and a TGI (OVCAR-5 ovarian) greater than 100 µM. The TGI (MOLT-4 leukemia) was 7 µM, the TGI (SK-OV-3 ovarian) was 27.6 µM and the TGI (SF-295 CNS) was 12 µM. It also gave a TGI (NCI-H226 lung) of 29.7 µM, a TGI (UACC-257 melanoma) greater than 84.4 µM and a TGI (HOP-92 NSCLC) of 41.4 µM. The TGI (CCRF-CEM leukemia) was 3.38 µM, the TGI (U251 CNS) was 17.1 µM and the TGI (SF-268 CNS) was greater than 86.4 µM. For the same compound, the TGI (OVCAR-4 ovarian) was greater than 78.6 µM, the TGI (MCF7 breast) was greater than 38.3 µM and the TGI (COLO 205 colon) was 5.55 µM. The TGI (IGROV1 ovarian) was greater than 40.3 µM, the TGI (SNB-19 CNS) was 73.5 µM and the TGI (NCI-H23 lung) was 39.2 µM. The TGI (SW-620 colon) was greater than 42.4 µM, the TGI (T-47D breast) was greater than 96 µM and the TGI (K-562 leukemia) was 1.36 µM. For the same compound, the TGI (786-0 renal) was 43.8 µM and the TGI (HCC-2998 colon) was 4.35 µM.
